Assay results: PubChem BioAssay (NCI)
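Interpolation was linear, between the two tested concentrations surrounding the appropriate level; five concentrations were tested over 48 hours in 96-well plates. GI50: concentration for 50% inhibition of growth. TGI: concentration producing complete growth inhibition.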

What was measured:
Test in all cases: inhibition of tumour cell growth, NCI panel, 48 h
UACC-257 melanoma = test system: UACC-257 melanoma
UACC-62 melanoma = test system: UACC-62 melanoma
SF-268 CNS = test system: SF-268 CNS
CCRF-CEM leukemia = test system: CCRF-CEM leukemia
NCI-H23 lung = test system: NCI-H23 lung
SNB-75 CNS = test system: SNB-75 CNS
SK-MEL-5 melanoma = test system: SK-MEL-5 melanoma
786-0 renal = test system: 786-0 renal
OVCAR-3 ovarian = test system: OVCAR-3 ovarian
SK-OV-3 ovarian = test system: SK-OV-3 ovarian

Row | SMILES | GI50 (UACC-257 melanoma) [µM] | TGI (UACC-257 melanoma) [µM] | GI50 (UACC-62 melanoma) [µM] | TGI (UACC-62 melanoma) [µM] | GI50 (SF-268 CNS) [µM] | TGI (SF-268 CNS) [µM] | GI50 (CCRF-CEM leukemia) [µM] | TGI (CCRF-CEM leukemia) [µM] | GI50 (NCI-H23 lung) [µM] | TGI (NCI-H23 lung) [µM] | GI50 (SNB-75 CNS) [µM] | TGI (SNB-75 CNS) [µM] | GI50 (SK-MEL-5 melanoma) [µM] | TGI (SK-MEL-5 melanoma) [µM] | GI50 (786-0 renal) [µM] | TGI (786-0 renal) [µM] | GI50 (OVCAR-3 ovarian) [µM] | TGI (OVCAR-3 ovarian) [µM] | GI50 (SK-OV-3 ovarian) [µM] | TGI (SK-OV-3 ovarian) [µM]
1 | Clc1ccc(-c2nc3c(-c4ccc(Cl)cc4)nc(-c4ccccc4)cn3c2-c2ccc(Cl)cc2)cc1 | > 50 | > 50 | 26 | > 50 | > 50 | > 50 | > 50 | > 50 | > 50 | > 50 | 6.56 | 25.7 | > 50 | > 50 | 46.5 | > 50 | > 50 | > 50 | 24.2 | > 50
2 | C=C1C(=O)OC2CCCCC3OC3C12 (stereo not given) | – | 26.5 | – | 13.7 | – | 31.1 | – | 20.2 | – | 32.6 | – | 59.1 | – | 19.5 | – | 19.8 | – | 26.5 | – | 32
3 | COC1=C(OC)C(=O)C(/C=C(\C)C(=O)O)=C(C)C1=O | > 100 | > 100 | > 100 | > 100 | > 100 | > 100 | 67 | > 100 | > 100 | > 100 | 49.1 | > 100 | > 100 | > 100 | > 100 | > 100 | > 100 | > 100 | > 100 | > 100
4 | C[N+](C)(C)CCOP(=O)(O)OP(=O)([O-])OCC1CCC(n2ccc(N)nc2=O)O1 (stereo not given) | – | > 100 | – | > 100 | – | > 100 | – | > 100 | – | > 100 | – | > 100 | – | > 100 | – | > 100 | – | > 100 | – | > 100
5 | CC(=O)NNc1nc(C)c(C(=O)NNC(=O)C(=O)Nc2ccc(C)c(C)c2)s1 | – | > 100 | – | > 100 | – | > 100 | – | > 100 | – | > 100 | – | > 100 | – | > 100 | – | > 100 | – | 81.1 | – | > 100
6 | O=C1Cc2cc(CCn3ccnc3)c(Cl)cc2N1 | 5.65 | > 100 | 7.68 | > 100 | 11.2 | > 100 | 3.37 | > 100 | 40.8 | > 100 | 21.6 | > 100 | 8.12 | > 100 | > 100 | > 100 | 9.31 | 78.1 | 18.1 | > 100
7 | Nc1ccc2c(c1)C(=O)c1ccc(F)cc1-2 | – | > 100 | – | > 100 | – | > 100 | – | > 100 | – | > 100 | – | > 100 | – | > 100 | – | > 100 | – | > 100 | – | > 100
8 | CCCOc1ccc(/C(Cl)=C(\C=O)c2ccc(OC)c(OC)c2)cc1OCCC | – | > 100 | – | 19.8 | – | > 100 | – | > 100 | – | 21.6 | – | 75.3 | – | 46.3 | – | > 100 | – | > 100 | – | > 100
